# Patent publication US11766427B2, “Repurposing compounds for the treatment of infections and for modulating the composition of the gut microbiome” (EUROPEAN MOLECULAR BIOLOGY LABORATORY, priority 2018, dated 2023)
# Read-outs that look alike come from different tables or passages of the source.
# Experiments:
# [1] = system: Bacteroides fragilis (ET) (NT5033); format: cell-based, Bacteroides fragilis enterotoxigenic; conditions: screen at 20 μM
# [2] = system: Bacteroides ovatus (NT5054); assay: Prestwick Chemical Library growth screen (OD578 growth curves, AUC); format: cell-based; conditions: FIG. 8b, three biological replicates, 20 μM
# [3] = system: 40 different bacterial species; assay: Prestwick Chemical Library growth screen, whole panel (hits, anticommensal activity); format: cell-based, human gut isolates
# [4] = system: Fusobacterium nucleatum (NT5025); assay: Prestwick Chemical Library growth screen (OD578 growth curves, AUC); format: cell-based; conditions: screen at 20 μM
# [5] = cited from earlier work
# [6] = calculated; cited from earlier work
# [7] = system: 22 strains; assay: MIC of metformin at higher concentrations; conditions: 5/22 strains
# [8] = Estimated gut concentration from administration dose; conditions: estimated from recommended administration dose
# [9] = number of species inhibited of 40 different bacterial species tested
structure (smiles),measurement,setting,value
Cc1ccc(Cl)c(Nc2ccccc2C(=O)O)c1Cl [Meclofenamic acid],selective inhibition of the growth of an enterotoxigenic strain of Bacteroides fragilis (in words),[1],selectively inhibiting the growth
same,effect on growth curves (normalized OD/AUC) of Bacteroides ovatus (in words),[2],just below the hit threshold
same,n_hit,[3]; [9],5
O=c1cc(-c2ccc(O)c(O)c2)oc2cc(O)cc(O)c12 [Luteolin],selective inhibition of the growth of Fusobacterium nucleatum (in words),[4],selectively inhibiting the growth
same,n_hit,[3]; [9],1
CC[C@@H]([C@H](C)O)n1ncn(-c2ccc(N3CCN(c4ccc(OC[C@@H]5CO[C@@](Cn6cncn6)(c6ccc(F)cc6F)C5)cc4)CC3)cc2)c1=O [posaconazole],maximum concentration in the duodenum,[5]; 40 mg (57 μmol) delivered to the stomach in acidic solution,26.3 ± 10.3 µM
same,maximum concentration in the duodenum,[5]; 40 mg (57 μmol) delivered to the stomach in neutral solution,13.6 ± 5.8 µM
CCOC(=O)Nc1ccc2c(c1)N(C(=O)CCN1CCOCC1)c1ccccc1S2 [moricizine],effect on growth curves (normalized OD/AUC) of Bacteroides ovatus (in words),[2],a hit with partial but strong growth inhibition
CC(=O)Oc1cccc2c1C(=O)c1c(OC(C)=O)cc(C(=O)O)cc1C2=O [Diacerein],effect on growth curves (normalized OD/AUC) of Bacteroides ovatus (in words),[2],almost completely inhibits the growth
same,n_hit,"[3]; number of the 40 bacterial species tested whose growth is inhibited, Table 7 broad-spectrum compounds",33
CN(C)C(=N)N=C(N)N [metformin],anticommensal activity in the screen (in words),"[3]; 20 μM, 40 strains, FDR<0.01",did not show anticommensal activity
same,small intestine concentration relative to plasma concentration,[6],30-300 fold
same,Minimal Inhibitory Concentration (MIC),[7],< 10 mM
same,estimated gut concentration,[8],5 mM
